The test system of data set [1] is PC3 tumors. The conditions noted are these: cohort 2, ATC + durvalumab, 1 or 0.1 nmol/dose.
The test system of data set [2] is PC3 tumors. The conditions noted are these: 14 days after treatment, 1 nmol + ATC (fig. S10).
In a further data set the test system is murine PD-L1. The conditions noted are these: ref [47]; cited from earlier work.
For data set [3] the following is noted: 10 mM DTT vs PBS.
The subject of another data set is cynomolgus PD-L1. The conditions noted are these: flow staining of SDGF-PDL1B1G1-expressing cells.
For data set [4] the following is noted: ref [58]; cited from earlier work.

On to durvalumab, for which the tumor growth suppression result in the data set with PC3 tumors [1] is listed as “No tumor growth suppression”. Besides, the “ATC infiltration and activation in tumor (human CD8, granzyme B)” value in the data set with PC3 tumors [2] is reported as “recruitment of trace numbers of ATCs infiltrating the tumor”. For the same molecule, the murine cross-reactivity result in the data set with murine PD-L1 is recorded as “non-murine-cross-reactive”.

`CC[C@H](C)[C@@H]1NC(=O)[C@H](CCCNC(=N)N)NC(=O)[C@H](CCC(=O)O)NC(=O)[C@H](C)NC(=O)[C@@H]2CSSC[C@H](NC(=O)[C@H](Cc3c[nH]cn3)NC(=O)[C@H](C)NC(=O)[C@H](CCCNC(=N)N)NC(=O)CNC(=O)[C@H]([C@@H](C)CC)NC(=O)[C@H]([C@@H](C)O)NC(=O)[C@H](Cc3ccc(O)cc3)NC(=O)[C@H](CO)NC(=O)[C@H](CCCCN)NC1=O)C(=O)N[C@@H](CO)C(=O)NCC(=O)N[C@@H](CCC(N)=O)C(=O)N[C@@H](Cc1ccc(O)cc1)C(=O)N[C@@H](Cc1ccccc1)C(=O)N[C@@H](CC(=O)O)C(=O)N[C@@H](C(C)C)C(=O)N[C@@H](Cc1c[nH]c3ccccc13)C(=O)N[C@@H](CCCCN)C(=O)N[C@H]1CSSC[C@H](NC(=O)[C@H](Cc3c[nH]cn3)NC(=O)[C@H](C(C)C)NC(=O)[C@H](CCCCN)NC(=O)[C@@H](NC(=O)[C@H](CC(=O)O)NC(=O)[C@H](CCC(=O)O)NC(=O)[C@H](CCC(=O)O)NC(=O)[C@H](CO)NC(=O)CN)CSSC[C@@H](C(=O)N[C@@H](C)C(=O)N[C@@H](C)C(=O)N3CCC[C@H]3C(=O)O)NC(=O)[C@H](Cc3c[nH]cn3)NC(=O)[C@H](CC(=O)O)NC(=O)[C@H](CC(C)C)NC1=O)C(=O)N[C@@H](C(C)C)C(=O)N[C@@H](CCCCN)C(=O)N[C@@H](CCC(=O)O)C(=O)N[C@@H](Cc1c[nH]c3ccccc13)C(=O)N[C@@H](C)C(=O)N[C@@H](C)C(=O)N[C@@H](Cc1ccc(O)cc1)C(=O)N[C@@H](CCCCN)C(=O)N[C@@H](C)C(=O)N2` [PDL1B1G1]: the “RP-HPLC mobility shift upon reduction” value in data set [3] is reported as “substantial mobility shift”. Moreover, the “binding to cynomolgus PD-L1 relative to murine PD-L1” value in the data set with cynomolgus PD-L1 is on record as “stronger than seen with murine PD-L1”.

On to atezolizumab, for which the linked adverse effect result in data set [4] was “Type 1 diabetes has been reported”.

The values above are taken from PMC10118748 (Science translational medicine, 2022).
